Values of other authors, collected in patent US20030194372A1, “Radioimaging probes and the use thereof” (priority 2000, published 2003).

Tested on: atheroma
Conditions: literature reports

SMILES: CCC(Cc1c(I)cc(I)c(N)c1I)C(=O)O[C@H]1CC[C@@]2(C)C(=CC[C@H]3[C@@H]4CC[C@H]([C@H](C)CCCC(C)C)[C@@]4(C)CC[C@@H]32)C1 (stereo partly shown) [CI, cholesteryl iopanoate]
- Accumulation in atheroma / atherosclerotic lesions: accumulated preferentially in atheroma relative to normal arterial tissue
